The results in this text go back to patent US20250282736A1, “SMALL MOLECULE MODULATORS OF HUMAN PREGNANE X RECEPTOR” (ST. JUDE CHILDREN'S RESEARCH HOSPITAL, priority 2022, published 2025).

Series [1] has as its target T1, hPXR (Homo sapiens (Human), UniProt O75469). The series is described as follows: cell-based hPXR agonistic assay. The conditions noted are these: for Agonist (% activation at 10 μM): rifampicin at 10 μM as 100% activation, DMSO (0.3%) as 0%.
The target of series [2] is T1, hPXR. The series is described as follows: cell-based hPXR inverse agonistic assay. Particulars: for inhibition at 10 µM: read-out: Inverse agonist (% inhibition at 10 μM).
In series [3] the target is T1, hPXR. The series is described as follows: cell-based hPXR antagonistic assay. Particulars: for inhibition at 10 µM: read-out: Antagonist (% inhibition at 10 μM); for Antagonist (% inhibition at 10 μM): SPA70 at 10 μM with rifampicin (5 μM) as 100% inhibition, rifampicin alone (5 μM) as 0%.
Series [4] deals with T1, hPXR. The series is described as follows: hPXR binding assay. Particulars: for inhibition at 10 µM: read-out: Binding (% inhibition at 10 μM).
Where [5] appears, read: read-out: Binding (IC50/μM), hPXR binding assay.
The mark [6] stands for this setting: read-out: Agonist (EC50/μM), cell-based hPXR agonistic assay.
The mark [7] stands for this setting: read-out: Inverse agonist (IC50/μM), cell-based hPXR inverse agonistic assay.
Setting [8] is: read-out: Antagonist (IC50/μM), cell-based hPXR antagonistic assay with rifampicin (5 μM).

Where two headings read alike, the source gives them in different places.

T1 sequence (O75469 whole entry): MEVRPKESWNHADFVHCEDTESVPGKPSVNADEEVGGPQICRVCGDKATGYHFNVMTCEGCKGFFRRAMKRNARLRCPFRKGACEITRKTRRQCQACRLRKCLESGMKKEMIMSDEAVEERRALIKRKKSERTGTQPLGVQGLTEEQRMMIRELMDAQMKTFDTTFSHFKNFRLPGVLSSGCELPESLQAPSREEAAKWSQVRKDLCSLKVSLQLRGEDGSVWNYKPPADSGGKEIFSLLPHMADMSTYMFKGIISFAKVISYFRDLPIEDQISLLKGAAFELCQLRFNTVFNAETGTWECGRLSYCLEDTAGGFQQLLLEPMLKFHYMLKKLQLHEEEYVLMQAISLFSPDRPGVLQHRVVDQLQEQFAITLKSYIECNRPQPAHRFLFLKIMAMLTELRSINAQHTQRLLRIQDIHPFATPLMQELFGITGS

As a reminder, the inhibition is the drop in the measured response relative to a control, in per cent. Regarding `CCC(CC)Oc1ccc(C(C)(C)C)cc1NC(=O)c1nnn(-c2cc(OC)ccc2OC)c1C` [B31], the EC50 at hPXR [1] was greater than 30 µM. The IC50 was 0.0016 µM at hPXR [2], 0.015 µM at hPXR [3] and 0.0075 ± 0.0011 µM at hPXR [4] (setting [5]). The inhibition at 10 µM at hPXR [2] is 111%; at hPXR [3], 105%; on hPXR [4] it was 91%.

On to `COc1ccc(OC)c(-n2nnc(C(=O)Nc3cc(C(C)(C)C)ccc3OCC(C)C)c2C)c1` [B32], for which the EC50 at hPXR [1] is greater than 30 µM. Besides, the inhibition at 10 µM at hPXR [2] was 89%; at hPXR [3], 96%; at hPXR [4], 81%. In addition, the IC50 against hPXR [3] was 0.26 µM; at hPXR [4] (setting [5]) it was 0.018 µM.

`CCCC(CC)Oc1ccc(C(C)(C)C)cc1NC(=O)c1nnn(-c2cc(OC)ccc2OC)c1C` (stereo not drawn) [B34, N-(5-(Tert-Butyl)-2-(Hexan-3-yloxy)Phenyl)-1-(2,5-Dimethoxyphenyl)-5-Methyl-1H-1,2,3-Triazole-4-Carboxamide] yielded an EC50 at hPXR [1] greater than 30 µM. The IC50 stood at 0.0023 ± 0.0008 µM on hPXR [2], 0.012 ± 0.003 µM on hPXR [3] and 0.019 µM on hPXR [4] (setting [5]). The inhibition at 10 µM came to 147% at hPXR [2], 108% on hPXR [3] and 92% on hPXR [4].

Turning to `COc1ccc(OC)c(-n2nnc(C(=O)Nc3cc(C(C)(C)C)ccc3N)c2C)c1` [B37], at hPXR [1], the “Agonist (% activation at 10 μM)” value was “(25 ± 7)%”. Also, on hPXR [1] (setting [6]), the EC50 was determined as 0.9 ± 0.22 µM. The IC50 on hPXR [2], against hPXR [3] and on hPXR [4] was greater than 30 µM each time.

With `COc1ccc(OC)c(-n2nnc(C(=O)Nc3cc(C(C)(C)C)ccc3NC(C)=O)c2C)c1` [B38], the “Agonist (% activation at 10 μM)” value at hPXR [1] was “(60 ± 13)%”. In addition, the EC50 at hPXR [1] (setting [6]) worked out at 0.99 ± 0.22 µM. Also, the IC50 was greater than 30 µM on hPXR [2], greater than 30 µM on hPXR [3] and 3.22 ± 2.29 µM on hPXR [4] (setting [5]). In addition, the inhibition at 10 µM at hPXR [4] was determined as 60%.

`COc1ccc(OC)c(-n2nnc(C(=O)Nc3ccc(NC(C)=O)c(C(C)(C)C)c3)c2C)c1` [C1, N-(4-acetamido-3-(tert-butyl)phenyl)-1-(2,5-dimethoxyphenyl)-5-methyl-1H-1,2,3-triazole-4-carboxamide]: the EC50 at hPXR [1] turned out to be 1.96 ± 0.19 µM. The “Agonist (% activation at 10 μM)” value on hPXR [1] is recorded as “(50 ± 14)%”. Besides, the IC50 at hPXR [2] was greater than 30 µM; at hPXR [3] it was greater than 30 µM; on hPXR [4] (setting [5]), 1.81 ± 0.52 µM. At hPXR [4], the inhibition at 10 µM is 65%.

As for `COc1ccc(OC)c(-n2nnc(C(=O)Nc3ccc(N)c(C(C)(C)C)c3)c2C)c1` [C2, N-(4-amino-3-(tert-butyl)phenyl)-1-(2,5-dimethoxyphenyl)-5-methyl-1H-1,2,3-triazole-4-carboxamide], the “Agonist (% activation at 10 μM)” value on hPXR [1] is listed as “(33 ± 7)%”. Also, the EC50 on hPXR [1] (setting [6]) is 0.28 µM. In addition, the IC50 at hPXR [2] was greater than 30 µM; against hPXR [3] it was greater than 30 µM; at hPXR [4] (setting [5]), 4.12 ± 1.4 µM. Further, the inhibition at 10 µM on hPXR [4] is 86%.

At hPXR [1], `CNc1cc(NC(=O)c2nnn(-c3cc(OC)ccc3OC)c2C)cc(C(C)(C)C)c1` [D2, N-(3-(tert-butyl)-5-(methylamino)phenyl)-1-(2,5-dimethoxyphenyl)-5-methyl-1H-1,2,3-triazole-4-carboxamide] registered an EC50 greater than 30 µM. For the same molecule, the results for the IC50 at hPXR [2] (setting [7]), at hPXR [3] (setting [8]) and on hPXR [4] (setting [5]) were 0.12 µM, 0.41 ± 0.13 µM and 0.33 ± 0.11 µM, respectively. Moreover, on hPXR [3], the “Antagonist (% inhibition at 10 μM)” value was “(109 ± 6)%”.

`COc1ccc(OC)c(-n2nnc(C(=O)Nc3cc(N(C)C)cc(C(C)(C)C)c3)c2C)c1` [D3, N-(3-(tert-butyl)-5-(dimethylamino)phenyl)-1-(2,5-dimethoxyphenyl)-5-methyl-1H-1,2,3-triazole-4-carboxamide] showed an EC50 on hPXR [1] greater than 30 µM. Moreover, the values for the IC50 on hPXR [2] (setting [7]), on hPXR [3] (setting [8]) and at hPXR [4] (setting [5]) were 0.11 µM, 0.34 µM and 0.27 ± 0.04 µM, respectively. In addition, on hPXR [3], the “Antagonist (% inhibition at 10 μM)” value is “(110 ± 3)%”.

Molecule `CCCCNc1cc(NC(=O)c2nnn(-c3cc(OC)ccc3OC)c2C)cc(C(C)(C)C)c1` [D4, N-(3-(tert-butyl)-5-(butylamino)phenyl)-1-(2,5-dimethoxyphenyl)-5-methyl-1H-1,2,3-triazole-4-carboxamide] had an EC50 at hPXR [1] greater than 30 µM. Moreover, the values for the IC50 on hPXR [2] (setting [7]), on hPXR [3] (setting [8]) and at hPXR [4] (setting [5]) were 0.039 ± 0.012 µM, 0.13 µM and 0.45 ± 0.12 µM, respectively.

In turn, `CCCCN(CCCC)c1cc(NC(=O)c2nnn(-c3cc(OC)ccc3OC)c2C)cc(C(C)(C)C)c1` [D5, N-(3-(tert-butyl)-5-(dibutylamino)phenyl)-1-(2,5-dimethoxyphenyl)-5-methyl-1H-1,2,3-triazole-4-carboxamide] gave an EC50 on hPXR [1] greater than 30 µM. In addition, the figures for the IC50 on hPXR [2] (setting [7]), at hPXR [3] (setting [8]) and at hPXR [4] (setting [5]) were 0.15 µM, 0.62 ± 0.28 µM and 0.5 ± 0.12 µM, respectively. Moreover, the “Antagonist (% inhibition at 10 μM)” value at hPXR [3] is listed as “(82 ± 17)%”.

In turn, `COc1ccc(OC)c(-n2nnc(C(=O)Nc3cc(NC(=O)CCC(=O)O)cc(C(C)(C)C)c3)c2C)c1` [D6, 4-((3-(tert-butyl)-5-(1-(2,5-dimethoxyphenyl)-5-methyl-1H-1,2,3-triazole-4-carboxamido)phenyl)amino)-4-oxobutanoic acid] gave an EC50 at hPXR [1] greater than 30 µM. The IC50 at hPXR [2] came out at 12.7 ± 4.69 µM; against hPXR [3], 22.1 ± 4.86 µM; on hPXR [4] (setting [5]) it was 1.26 µM. The inhibition at 10 µM worked out at 48% on hPXR [2], 25% on hPXR [3] and 70% on hPXR [4].

`COc1ccc(OC)c(-n2nnc(C(=O)Nc3cc(NCC(=O)OC(C)(C)C)cc(C(C)(C)C)c3)c2C)c1` [D8, tert-butyl (3-(tert-butyl)-5-(1-(2,5-dimethoxyphenyl)-5-methyl-1H-1,2,3-triazole-4-carboxamido)phenyl)glycinate] had an EC50 on hPXR [1] greater than 30 µM. The IC50 at hPXR [2] stood at 0.12 µM; at hPXR [3], 0.46 ± 0.06 µM; at hPXR [4] (setting [5]), 0.33 µM. Moreover, the inhibition at 10 µM at hPXR [2] was determined as 127%; on hPXR [3], 104%; at hPXR [4], 81%.

As for `COc1ccc(OC)c(-n2nnc(C(=O)Nc3cc(NCC(=O)O)cc(C(C)(C)C)c3)c2C)c1` [D9], the EC50 on hPXR [1] was greater than 30 µM. Also, the results for the IC50 on hPXR [2], against hPXR [3] and at hPXR [4] (setting [5]) were 1.7 µM, 17.3 ± 1.39 µM and 3.53 ± 0.58 µM, respectively. For the same molecule, the inhibition at 10 µM came out at 107% at hPXR [2], 65% on hPXR [3] and 61% at hPXR [4].

`COc1ccc(OC)c(-n2nnc(C(=O)Nc3cc(NCCN)cc(C(C)(C)C)c3)c2C)c1` [D10]: the EC50 at hPXR [1] is greater than 30 µM. The IC50 on hPXR [2] was 7.09 ± 1.37 µM; on hPXR [3], 11.9 ± 2.27 µM; at hPXR [4], greater than 30 µM. Moreover, the inhibition at 10 µM turned out to be 130% on hPXR [2] and 104% on hPXR [3].

Molecule `COc1ccc(OC)c(-n2nnc(C(=O)Nc3cc(N=C=S)cc(C(C)(C)C)c3)c2C)c1` [D11] yielded an EC50 on hPXR [1] greater than 30 µM. The IC50 is 2.55 ± 0.64 µM at hPXR [2], 30.2 ± 16.1 µM on hPXR [3] and 2.6 ± 0.51 µM on hPXR [4] (setting [5]). Besides, the inhibition at 10 µM is 95% on hPXR [2], 26% at hPXR [3] and 47% at hPXR [4].

Consider `COc1ccc(OC)c(-n2nnc(C(=O)Nc3cc(OC(=O)c4nnn(-c5cc(OC)ccc5OC)c4C)cc(C(C)(C)C)c3)c2C)c1` [D13, 3-(tert-butyl)-5-(1-(2,5-dimethoxyphenyl)-5-methyl-1H-1,2,3-triazole-4-carboxamido)phenyl 1-(2,5-dimethoxyphenyl)-5-methyl-1H-1,2,3-triazole-4-carboxylate], for which, at hPXR [1], the EC50 is greater than 30 µM. Further, the IC50 was 0.15 µM at hPXR [2], 0.83 ± 0.11 µM on hPXR [3] and greater than 30 µM on hPXR [4]. Also, the inhibition at 10 µM came to 93% at hPXR [2] and 68% at hPXR [3].

The molecule `COc1ccc(OC)c(-n2nnc(C(=O)Nc3cc(OCCCCI)cc(C(C)(C)C)c3)c2C)c1` [D17, N-(3-(tert-butyl)-5-(4-iodobutoxy)phenyl)-1-(2,5-dimethoxyphenyl)-5-methyl-1H-1,2,3-triazole-4-carboxamide] gave an EC50 at hPXR [1] greater than 30 µM. Also, the IC50 is 0.0088 ± 0.003 µM at hPXR [2], 0.066 ± 0.007 µM at hPXR [3] and 0.18 µM on hPXR [4] (setting [5]). The inhibition at 10 µM at hPXR [2] was determined as 120%; at hPXR [3] it was 112%; at hPXR [4], 50%.

In turn, `COc1ccc(OC)c(-n2nnc(C(=O)Nc3cc(OCCCN4CCN(C)CC4)cc(C(C)(C)C)c3)c2C)c1` [D18] displayed an EC50 at hPXR [1] greater than 30 µM. Also, the IC50 at hPXR [2] is 3.73 ± 0.3 µM; on hPXR [3], 5.32 µM; at hPXR [4], greater than 30 µM. The inhibition at 10 µM on hPXR [2] is 126%; on hPXR [3], 105%.

In turn, `C#CCCCOc1cc(NC(=O)c2nnn(-c3cc(OC)ccc3OC)c2C)cc(C(C)(C)C)c1` [D19] came in with an EC50 on hPXR [1] greater than 30 µM. Also, the IC50 came to 0.032 ± 0.007 µM at hPXR [2], 0.19 µM against hPXR [3] and 0.024 µM at hPXR [4] (setting [5]). Besides, the inhibition at 10 µM on hPXR [2] was found to be 116%; on hPXR [3], 107%; at hPXR [4], 25%.

Consider `CCCCCCCCOc1cc(NC(=O)c2nnn(-c3cc(OC)ccc3OC)c2C)cc(C(C)(C)C)c1` [D20], for which the EC50 at hPXR [1] was greater than 30 µM. The IC50 at hPXR [2] came out at 0.82 ± 0.12 µM; at hPXR [3], 11.5 ± 2.81 µM; on hPXR [4] (setting [5]), 1 µM. Also, the inhibition at 10 µM came to 104% on hPXR [2], 35% at hPXR [3] and 42% at hPXR [4].
